Experiment [1] relates to iniB promoter. It is filed as cell-based, BCG. The note with it: for Induction of the iniB promoter at 24 hours: BCG containing the iniB/lacZ construct; for Induction of the iniB promoter at 24 hours / iniA gene induction / effect on iniA transcription: FIG. 4; for iniA gene induction / effect on iniA transcription: amino acids; for iniB promoter induction: 213 base pair iniB promoter in lacz reporter construct.

For experiment [2], the system named is iniA. Description: Northern blot of iniA induction after antibiotic treatment. The class given is cell-based. The note with it: total RNA from M. tuberculosis cultured with or without antibiotics; FIG. 1. How it is done:
Autoradiographs of a Northern blot containing RNA from M. tuberculosis cultures treated either with no antibiotics; isoniazid 0.01 μg/ml; isoniazid 0.1 μg/ml; isoniazid 1 μg/ml; ethambutol 5 μg/ml; streptomycin 5 μg/ml; and rifampin 5 μg/ml. The blots were hybridized first with an iniA DNA probe (top) to examine iniA induction; the blot was then stripped and re-hybridized with a 16S probe (bottom) to confirm equal RNA loading.
Mycobacterial cultures were grown to mid log phase in Middlebrook 7H9 media supplemented with OADC, 0.05% Tween 80, and cyclohexamide (18) (for some experiments antibiotics were added for the last 18 hours), pelleted, resuspended in chloroform/methanol 3:1, and vortexed for 60 seconds or until the formation of an interface. RNA was extracted with five volumes of Triazole (Life Technologies, Gaithersburg, Md.), the aqueous layer precipitated in isopropanol, redissolved in 4M GTC and extracted a second time with Triazole.
Five μg of each RNA sample were analyzed by northern blot with Northern Max kits (Ambion, Austin, Tex.) in a 1% denaturing agarose gel, probed with inserts of differentially expressed plasmids labeled by random priming with [α^32P] dCTP, and visualized by autoradiography.

Experiment [3] relates to iniA. It is filed as cell-based, M. tuberculosis strain Erdman. Conditions: RT PCR; isoniazid added for the last 18 hours; FIG. 2A.
Experiment [4] relates to asd. The class given is cell-based, M. tuberculosis strain Erdman. The note with it: RT PCR; isoniazid added for the last 18 hours; FIG. 2A.

Molecules are shown by their SMILES.

As for `C[C@H](O)[C@@H](N)C(=O)O` [D-threonine], in experiment [1], the “Induction of the iniB promoter at 24 hours” value (from here on “Induction … at 24 hours”) is “comparable to that of isoniazid and Unisyn”; the “iniA gene induction / effect on iniA transcription” value was “induced”.

With `C[C@@H](O)[C@H](N)C(=O)O` [L-threonine], in experiment [1], the “Induction … at 24 hours” value was “did not cause induction” and the “iniA gene induction / effect on iniA transcription” value was “minimal effect”.

Regarding `N[C@@H]1CON=C1O` [cycloserine], the iniB promoter induction entry in experiment [1] (FIG. 3) is reported as “induced”.

In the case of `CC[C@@H](CO)NCCN[C@@H](CC)CO` [ethambutol], the “iniA induction (Northern blot)” value in experiment [2] is given as “strongly induced”. Besides, in experiment [1] (FIG. 3), the iniB promoter induction result is reported as “induced”.

For the compound `NCC(=O)O` [gylcine], the “Induction … at 24 hours” value in experiment [1] is “Modest induction”.

Take `NNC(=O)c1ccncc1` [isoniazid]: the “iniA induction (Northern blot)” value in experiment [2] is given as “strongly induced”. Besides, in experiment [3], the “iniA induction by densitometry” value is listed as 70 fold. In addition, in experiment [4], the asd repression is reported as 17 fold. Also, the iniB promoter induction entry in experiment [1] (FIG. 3) is listed as “induced”.

Regarding `CO[C@H]1/C=C/O[C@@]2(C)Oc3c(C)c(O)c4c(O)c(c(/C=N/N5CCN(C)CC5)c(O)c4c3C2=O)NC(=O)/C(C)=C\C=C\[C@H](C)[C@H](O)[C@@H](C)[C@@H](O)[C@@H](C)[C@H](OC(C)=O)[C@@H]1C` [rifampin], the “iniA induction (Northern blot)” value in experiment [2] is “not”. Moreover, in experiment [1] (co-administration with inducing antibiotic, FIG. 3), the “Reversal of iniB promoter induction by co-administration” value is listed as “can be reversed”.

As to `[H]/N=C(/N)N[C@H]1[C@H](O)[C@@H](O)[C@H](O[C@@H]2O[C@@H](C)[C@](O)(C=O)[C@H]2O[C@@H]2O[C@@H](CO)[C@H](O)[C@@H](O)[C@@H]2NC)[C@@H](N/C(N)=N\[H])[C@@H]1O` [streptomycin], the “iniA induction (Northern blot)” value in experiment [2] is “not”.

(Values after patent publication US6821769B2, “IniB, iniA and iniC genes of mycobacteria and methods of use” (priority 1998, dated 2004).)
